These results are taken from patent US7163931B2, “Compositions of estrogen-cyclodextrin complexes” (Schering Aktiengesellchaft, priority 2000, dated 2007).

The nature of series [1]: Acid dissociation constant (pKa) by photometric titration in aqueous media. The class given is physicochemical. The method, then: The Acid Dissociation Constant of the EE-β-CD complex in aqueous media was determined.
In aqueous solution, the ethinyl estradiol-β-cyclodextrin complex dissociates into its components according to the law of mass action. […] The pKa was measured by a photometric titration method following the guidance given in the Environmental Assessment Technical Handbook.

Series [2] is classed as physicochemical. The method, then:
The molar content of each degradation products is expressed relatively to the initial molar content of ethinyl estradiol that was added to each formulation. Four formulations as well as the pure ethinyl estradiol and the ethinyl estradiol β-cyclodextrin complex were investigated.

Regarding `C#C[C@]1(O)CC[C@H]2[C@@H]3CCc4cc(O)ccc4[C@H]3CC[C@@]21C` [EE, ethinyl estradiol], the “acid dissociation constant pKa” value in series [1] is recorded as “approx. 10.25”. For the same compound, in series [1] (acid dissociation constant pKa), the pKa (commonly the pH at which an ionisable group is half protonated) amounted to 10.25 ± 0.04. On to “ethinyl estradiol-β-Cyclodextrin complex [EE-β-CD]”, for which the “total known degradation products (% of initial content of EE)” value in series [2] is given as 0.385 % of initial content of EE.
